Measurements as given in patent US9884063B2, “Amido-substituted azole compounds” (Bayer Pharma Aktiengesellschaft, priority 2014, dated 2018).
Counter-ions that a name gives are not always drawn.

Assays:
TNKS1 = target: T1, TNKS1 (Homo sapiens, UniProt O95271); assay: Modified TNKS1 Assay 3 (BPS kit #80573, biotin-NAD+, 96 well); format: biochemical; settings: human TNKS1, BPS kit #80573, 96 well
T1 sequence (O95271 1-1327): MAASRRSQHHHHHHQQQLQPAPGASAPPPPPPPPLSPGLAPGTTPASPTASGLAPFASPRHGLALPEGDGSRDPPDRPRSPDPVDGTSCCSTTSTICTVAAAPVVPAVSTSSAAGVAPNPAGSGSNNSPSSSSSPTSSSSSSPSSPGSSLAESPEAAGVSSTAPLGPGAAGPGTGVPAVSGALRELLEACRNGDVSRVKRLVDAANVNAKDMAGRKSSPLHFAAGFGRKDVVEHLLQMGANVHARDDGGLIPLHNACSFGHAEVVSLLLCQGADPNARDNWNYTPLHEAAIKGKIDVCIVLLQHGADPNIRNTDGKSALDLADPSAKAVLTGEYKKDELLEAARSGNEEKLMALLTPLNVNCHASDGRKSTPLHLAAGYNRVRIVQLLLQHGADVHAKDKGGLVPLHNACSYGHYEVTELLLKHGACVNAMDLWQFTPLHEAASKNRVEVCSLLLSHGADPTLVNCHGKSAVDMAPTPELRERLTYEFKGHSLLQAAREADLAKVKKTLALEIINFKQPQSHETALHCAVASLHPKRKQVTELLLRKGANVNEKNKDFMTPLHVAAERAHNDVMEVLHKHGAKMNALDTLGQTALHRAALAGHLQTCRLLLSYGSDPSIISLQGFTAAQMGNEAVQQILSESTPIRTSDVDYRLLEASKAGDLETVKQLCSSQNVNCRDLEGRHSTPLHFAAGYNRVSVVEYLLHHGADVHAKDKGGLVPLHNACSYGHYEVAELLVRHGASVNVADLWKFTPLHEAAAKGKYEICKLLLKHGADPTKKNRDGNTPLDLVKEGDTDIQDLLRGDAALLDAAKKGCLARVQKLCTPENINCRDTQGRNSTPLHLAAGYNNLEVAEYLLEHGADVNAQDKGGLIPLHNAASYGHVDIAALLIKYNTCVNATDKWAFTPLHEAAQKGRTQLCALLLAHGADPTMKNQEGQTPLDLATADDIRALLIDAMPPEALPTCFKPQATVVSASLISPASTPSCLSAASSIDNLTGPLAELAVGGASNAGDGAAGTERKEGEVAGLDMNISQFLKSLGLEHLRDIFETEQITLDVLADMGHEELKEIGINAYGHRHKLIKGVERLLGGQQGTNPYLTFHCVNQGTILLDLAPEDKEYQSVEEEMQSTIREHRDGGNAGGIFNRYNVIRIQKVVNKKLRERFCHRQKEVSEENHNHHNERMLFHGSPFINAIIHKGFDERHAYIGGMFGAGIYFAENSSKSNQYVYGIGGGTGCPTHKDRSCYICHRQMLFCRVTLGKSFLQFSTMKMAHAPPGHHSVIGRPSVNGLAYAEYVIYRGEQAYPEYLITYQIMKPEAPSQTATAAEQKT
Procedure, shortened: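 Chemiluminescent assay of TNKS1-catalysed ribosylation of a protein substrate with biotin-labelled NAD+, detected via streptavidin-HRP; run per kit protocol. Inhibition lowers the signal, and IC50 is the compound concentration halving the normalised readout.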

[1] = system: HEK293 FOP control reporter cell line; assay: HEK293 FOP Assay (FOP control vector luciferase reporter); format: cell-based; settings: Homo sapiens, HEK293 FOP control reporter cell line, 16 hours incubation, compound dilution series 50 μM to 15 nM
Procedure, shortened: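 Compound series 50 μM to 15 nM, 3.16-fold steps, were diluted in CAFTY buffer (pH 7.4, 2 mM Ca2+, 0.01% BSA) and tested alongside the TOP reporter line. Human Wnt-3a was added at 2500–5 ng/ml in two-fold steps. The control HEK293 line stably holds an FOP vector whose TCF elements are randomized and non-functional.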

Q: How did the IC50 (TNKS1) turn out when `CC1CCCN(CCNC(=O)c2[nH]cnc2C(=O)Nc2ccc(NC(=O)c3ccccc3Cl)cc2)C1` (centres unmarked) [Example 210, N^4-{4-[(2-chlorobenzoyl)amino]phenyl}-N^5-[2-(3-methylpiperidin-1-yl)ethyl]-1H-imidazole-4,5-dicarboxamide] was run?
A: 0.02 µM

Q: And the IC50 [1]?
A: 24 µM

Q: Which results are given for `O=C(Nc1ccc(NC(=O)c2nc[nH]c2C(=O)NCCN2CCC(F)(F)CC2)cc1)c1ccccc1Cl` [Example 214, N^4-{4-[(2-chlorobenzoyl)amino]phenyl}-N^5-[2-(4,4-difluoropiperidin-1-yl)ethyl]-1H-imidazole-4,5-dicarboxamide]?
A: IC50 (TNKS1): 0.2 µM; IC50 [1]: 22 µM

Q: Which results are given for `O=C(Nc1ccc(NC(=O)c2nc[nH]c2C(=O)NCCN2CCC(F)(F)CC2)cc1)c1ccc(F)cc1Br` [Example 215, N^4-{4-[(2-bromo-4-fluorobenzoyl)amino]phenyl}-N^5-[2-(4,4-difluoropiperidin-1-yl)ethyl]-1H-imidazole-4,5-dicarboxamide]?
A: IC50 (TNKS1): 0.21 µM; IC50 [1]: 29.5 µM

Q: `O=C(Nc1ccc(NC(=O)c2ocnc2C(=O)NCCN2CCCC(F)C2)cc1)c1ccc(F)cc1Cl` (centres unmarked) [Example 220, N^5-{4-[(2-chloro-4-fluorobenzoyl)amino]phenyl}-N^4-[2-(3-fluoropiperidin-1-yl)ethyl]-1,3-oxazole-4,5-dicarboxamide] was tested. Which IC50 (TNKS1) did it give?
A: 0.26 µM

Q: What about the IC50 [1] of the same compound?
A: 36 µM

Q: Which IC50 (TNKS1) does the source give for `O=C(Nc1ccc(NC(=O)c2ocnc2C(=O)NCCN2CC[C@H](F)C2)cc1)c1ccc(F)cc1Cl` [Example 221, N^5-{4-[(2-chloro-4-fluorobenzoyl)amino]phenyl}-N^4-{2-[(3S)-3-fluoropyrrolidin-1-yl]ethyl}-1,3-oxazole-4,5-dicarboxamide] here?
A: > 0.5 µM

Q: And the IC50 [1]?
A: 12 µM

Q: What does the source list for `O=C(Nc1ccc(NC(=O)c2ocnc2C(=O)NCCN2CC[C@@H](F)C2)cc1)c1ccc(F)cc1Cl` [Example 222, N^5-{4-[(2-chloro-4-fluorobenzoyl)amino]phenyl}-N^4-{2-[(3R)-3-fluoropyrrolidin-1-yl]ethyl}-1,3-oxazole-4,5-dicarboxamide]?
A: IC50 (TNKS1): 0.22 µM; IC50 [1]: 23 µM

Q: How did the IC50 (TNKS1) turn out when `O=C(Nc1ccc(NC(=O)c2nc[nH]c2C(=O)NCCN2CCC(F)(F)CC2)cc1)c1ccc(F)cc1Cl` [Example 224, N^4-{4-[(2-chloro-4-fluorobenzoyl)amino]phenyl}-N^5-[2-(4,4-difluoropiperidin-1-yl)ethyl]-1H-imidazole-4,5-dicarboxamide] was run?
A: 0.26 µM

Q: And the IC50 [1]?
A: 27 µM

Q: `O=C(Nc1ccc(NC(=O)c2nc[nH]c2C(=O)NCCN2CCCC(F)(F)C2)cc1)c1ccc(F)cc1Cl` [Example 225, N^4-{4-[(2-chloro-4-fluorobenzoyl)amino]phenyl}-N^5-[2-(3,3-difluoropiperidin-1-yl)ethyl]-1H-imidazole-4,5-dicarboxamide] was tested. Which IC50 (TNKS1) did it give?
A: 0.18 µM

Q: And the IC50 [1]?
A: 44 µM

Q: With `O=C(Nc1ccc(NC(=O)c2nc[nH]c2C(=O)NCCN2CCOCC2)cc1)c1ccc(F)cc1Cl` [Example 227, N^4-{4-[(2-chloro-4-fluorobenzoyl)amino]phenyl}-N^5-[2-(morpholin-4-yl)ethyl]-1H-imidazole-4,5-dicarboxamide] as the compound, how does the IC50 (TNKS1) read?
A: 0.2 µM

Q: What about the IC50 [1] of the same compound?
A: 23 µM

Q: `O=C(Nc1ccc(NC(=O)c2nc[nH]c2C(=O)NCCN2CCC(F)CC2)cc1)c1ccc(F)cc1Cl` [Example 230, N^4-{4-[(2-chloro-4-fluorobenzoyl)amino]phenyl}-N^5-[2-(4-fluoropiperidin-1-yl)ethyl]-1H-imidazole-4,5-dicarboxamide] was tested. Which IC50 (TNKS1) did it give?
A: 0.09 µM

Q: And the IC50 [1]?
A: 27 µM

Q: Which results are given for `O=C(Nc1ccc(NC(=O)c2nc[nH]c2C(=O)NCCN2CC[C@H](F)C2)cc1)c1ccc(F)cc1Cl` [Example 232, N^4-{4-[(2-chloro-4-fluorobenzoyl)amino]phenyl}-N^5-{2-[(3S)-3-fluoropyrrolidin-1-yl]ethyl}-1H-imidazole-4,5-dicarboxamide]?
A: IC50 (TNKS1): 0.29 µM; IC50 [1]: 35 µM

Q: With `O=C(Nc1ccc(NC(=O)c2nc[nH]c2C(=O)NC2CCOCC2)cc1)c1ccc(F)cc1Cl` [Example 234, N^4-{4-[(2-chloro-4-fluorobenzoyl)amino]phenyl}-N^5-(tetrahydro-2H-pyran-4-yl)-1H-imidazole-4,5-dicarboxamide] as the compound, how does the IC50 (TNKS1) read?
A: 0.22 µM

Q: What about the IC50 [1] of the same compound?
A: 16 µM

Q: `C[C@H]1CCCCN1CCNC(=O)c1[nH]cnc1C(=O)Nc1ccc(NC(=O)c2ccc(F)cc2Cl)cc1` [Example 266, N^4-{4-[(2-chloro-4-fluorobenzoyl)amino]phenyl}-N^5-{2-[(25)-2-methylpiperidin-1-yl]ethyl}-1H-imidazole-4,5-dicarboxamide formic acid salt] was tested. Which IC50 (TNKS1) did it give?
A: 0.02 µM

Q: What about the IC50 [1] of the same compound?
A: 20 µM

Q: Which IC50 (TNKS1) does the source give for `CC(CN1CCOCC1)NC(=O)c1[nH]cnc1C(=O)Nc1ccc(NC(=O)c2ccc(F)cc2Cl)cc1` (centres unmarked) [Example 268, N^4-{4-[(2-chloro-4-fluorobenzoyl)amino]phenyl}-N^5-[1-(morpholin-4-yl)propan-2-yl]-1H-imidazole-4,5-dicarboxamide] here?
A: 0.11 µM

Q: What about the IC50 [1] of the same compound?
A: 41 µM

Q: Which IC50 (TNKS1) does the source give for `O=C(Nc1ccc(NC(=O)c2nc[nH]c2C(=O)NCCCN2CCCC2)cc1)c1ccc(F)cc1Cl` [Example 274, N^4-{4-[(2-chloro-4-fluorobenzoyl)amino]phenyl}-N^5-[3-(pyrrolidin-1-yl)propyl]-1H-imidazole-4,5-dicarboxamide] here?
A: 0.01 µM

Q: What about the IC50 [1] of the same compound?
A: 45 µM

Q: Which IC50 (TNKS1) does the source give for `O=C(Nc1ccc(NC(=O)c2nc[nH]c2C(=O)NCCN2CCC[C@@H](F)C2)cc1)c1ccc(F)cc1Cl` [Example 277, N^4-{4-[(2-chloro-4-fluorobenzoyl)amino]phenyl}-N^5-{2-[(3R)-3-fluoropiperidin-1-yl]ethyl}-1H-imidazole-4,5-dicarboxamide] here?
A: 0.07 µM

Q: And the IC50 [1]?
A: 36 µM

Q: For `O=C(Nc1ccc(NC(=O)c2nc[nH]c2C(=O)N[C@@H]2CCNC2)cc1)c1ccc(F)cc1Cl` [Example 282, N^4-{4-[(2-chloro-4-fluorobenzoyl)amino]phenyl}-N^5-[(3R)-pyrrolidin-3-yl]-1H-imidazole-4,5-dicarboxamide hydrochloride salt], which IC50 (TNKS1) is on record?
A: 0.06 µM

Q: And the IC50 ([1]; HEK293, 16 h)?
A: 50 µM

Q: Which IC50 (TNKS1) does the source give for `O=C(Nc1ccc(NC(=O)c2nc[nH]c2C(=O)NCC2CCCN2)cc1)c1ccc(F)cc1Cl` (centres unmarked) [Example 284, N^4-{4-[(2-chloro-4-fluorobenzoyl)amino]phenyl}-N^5-(pyrrolidin-2-ylmethyl)-1H-imidazole-4,5-dicarboxamide hydrochloride salt] here?
A: 0.06 µM

Q: And the IC50 ([1]; HEK293, 16 h)?
A: 50 µM

Q: For `CNC(=O)c1nc[nH]c1C(=O)Nc1ccc(NC(=O)c2cccc(C)c2Cl)cc1` [Example 346, N^5-{4-[(2-chloro-3-methylbenzoyl)amino]phenyl}-N^4-methyl-1H-imidazole-4,5-dicarboxamide], which IC50 (TNKS1) is on record?
A: > 0.5 µM

Q: And the IC50 [1]?
A: 26 µM

Q: With `CCN1CCCC1CNC(=O)c1nc[nH]c1C(=O)Nc1ccc(NC(=O)c2ccc(F)cc2Cl)cc1` (centres unmarked) [Example 390, N^5-{4-[(2-chloro-4-fluorobenzoyl)amino]phenyl}-N^4-[(1-ethylpyrrolidin-2-yl)methyl]-1H-imidazole-4,5-dicarboxamide] as the compound, how does the IC50 (TNKS1) read?
A: 0.0009 µM

Q: What about the IC50 [1] of the same compound?
A: 18 µM

Q: Which results are given for `CN1CCN(CCCNC(=O)c2nc[nH]c2C(=O)Nc2ccc(NC(=O)c3ccc(F)cc3Cl)cc2)CC1` [Example 392, N^5-{4-[(2-chloro-4-fluorobenzoyl)amino]phenyl}-N^4-[3-(4-methylpiperazin-1-yl)propyl]-1H-imidazole-4,5-dicarboxamide]?
A: IC50 (TNKS1): 0.02 µM; IC50 [1]: 18 µM

Q: `CC1CCN(CCCNC(=O)c2nc[nH]c2C(=O)Nc2ccc(NC(=O)c3ccc(F)cc3Cl)cc2)CC1` [Example 400, N^5-{4-[(2-chloro-4-fluorobenzoyl)amino]phenyl}-N^4-[3-(4-methylpiperidin-1-yl)propyl]-1H-imidazole-4,5-dicarboxamide] was tested. Which IC50 (TNKS1) did it give?
A: 0.02 µM

Q: What about the IC50 [1] of the same compound?
A: 13 µM
